Test results: ChEMBL document CHEMBL2434921, “New synthetic aliphatic sulfonamido-quaternary ammonium salts as anticancer chemotherapeutic agents” (2013)
Calls of active or inactive are those of the source. The rule behind the calls is not given here.

Key:
[1] = biological target: Rho-related GTP-binding protein RhoB (Homo sapiens) (UniProt P62745); experiment: Transactivation of RhoB (unknown origin) transfected in human HeLa cells at 5 uM measured over 10 secs by dual luciferase reporter gene assay; format: cell-based
ACHN [2] = experiment: Growth inhibition of human ACHN cells after 48 hrs by SRB assay; format: functional
HCT-15 [3] = experiment: Growth of human HCT15 cells at 3 uM after 48 hrs by SRB assay; conditions: HCT-15, 48 h
NUGC-3 [4] = experiment: Growth of human NUGC3 cells at 0.1 uM after 48 hrs by SRB assay; conditions: NUGC-3, 48 h
ACHN [5] = experiment: Growth of human ACHN cells at 0.3 uM after 48 hrs by SRB assay
ACHN [6] = experiment: Growth of human ACHN cells at 0.1 uM after 48 hrs by SRB assay
PC-3 [7] = experiment: Growth inhibition of human PC3 cells after 48 hrs by SRB assay; format: functional; conditions: PC-3, 48 h
MDA-MB-231 [8] = experiment: Growth of human MDA-MB-231 cells at 0.1 uM after 48 hrs by SRB assay; conditions: MDA-MB-231, 48 h
NCI-H23 [9] = experiment: Growth inhibition of human NCI-H23 cells at 3 uM after 48 hrs by SRB assay; values are per cent of control; conditions: NCI-H23, 48 h
HCT-15 [10] = experiment: Growth inhibition of human HCT15 cells at 1 uM after 48 hrs by SRB assay; values are per cent of control; conditions: HCT-15, 48 h
HCT-15 [11] = experiment: Growth inhibition of human HCT15 cells after 48 hrs by SRB assay; format: functional; conditions: HCT-15, 48 h
HCT-15 [12] = experiment: Growth of human HCT15 cells at 0.3 uM after 48 hrs by SRB assay; conditions: HCT-15, 48 h
PC-3 [13] = experiment: Growth inhibition of human PC3 cells at 1 uM after 48 hrs by SRB assay; values are per cent of control; conditions: PC-3, 48 h
NCI-H23 [14] = experiment: Growth inhibition of human NCI-H23 cells at 0.1 uM after 48 hrs by SRB assay; values are per cent of control; conditions: NCI-H23, 48 h
NUGC-3 [15] = experiment: Growth inhibition of human NUGC3 cells after 48 hrs by SRB assay; format: functional; conditions: NUGC-3, 48 h
MDA-MB-231 [16] = experiment: Growth inhibition of human MDA-MB-231 cells at 0.3 uM after 48 hrs by SRB assay; values are per cent of control; conditions: MDA-MB-231, 48 h
NUGC-3 [17] = experiment: Growth of human NUGC3 cells at 1 uM after 48 hrs by SRB assay; conditions: NUGC-3, 48 h
PC-3 [18] = experiment: Growth inhibition of human PC3 cells at 3 uM after 48 hrs by SRB assay; values are per cent of control; conditions: PC-3, 48 h
HCT-15 [19] = experiment: Growth inhibition of human HCT15 cells at 0.1 uM after 48 hrs by SRB assay; values are per cent of control; conditions: HCT-15, 48 h
NCI-H23 [20] = experiment: Growth inhibition of human NCI-H23 cells at 1 uM after 48 hrs by SRB assay; values are per cent of control; conditions: NCI-H23, 48 h
NCI-H23 [21] = experiment: Growth of human NCI-H23 cells at 0.3 uM after 48 hrs by SRB assay; conditions: NCI-H23, 48 h
MDA-MB-231 [22] = experiment: Growth of human MDA-MB-231 cells at 3 uM after 48 hrs by SRB assay; values are per cent of control; conditions: MDA-MB-231, 48 h
HCT-15 [23] = experiment: Growth inhibition of human HCT15 cells at 10 uM after 48 hrs by SRB assay; values are per cent of control; conditions: HCT-15, 48 h
MDA-MB-231 [24] = experiment: Growth of human MDA-MB-231 cells at 1 uM after 48 hrs by SRB assay; conditions: MDA-MB-231, 48 h
ACHN [25] = experiment: Growth inhibition of human ACHN cells at 1 uM after 48 hrs by SRB assay; values are per cent of control
PC-3 [26] = experiment: Growth inhibition of human PC3 cells at 0.1 uM after 48 hrs by SRB assay; values are per cent of control; conditions: PC-3, 48 h
ACHN [27] = experiment: Growth inhibition of human ACHN cells at 3 uM after 48 hrs by SRB assay; values are per cent of control
NCI-H23 [28] = experiment: Growth of human NCI-H23 cells at 10 uM after 48 hrs by SRB assay; conditions: NCI-H23, 48 h
ACHN [29] = experiment: Growth of human ACHN cells at 10 uM after 48 hrs by SRB assay
NUGC-3 [30] = experiment: Growth inhibition of human NUGC3 cells at 3 uM after 48 hrs by SRB assay; values are per cent of control; conditions: NUGC-3, 48 h
PC-3 [31] = experiment: Growth of human PC3 cells at 10 uM after 48 hrs by SRB assay; conditions: PC-3, 48 h
PC-3 [32] = experiment: Growth inhibition of human PC3 cells at 0.3 uM after 48 hrs by SRB assay; values are per cent of control; conditions: PC-3, 48 h
MDA-MB-231 [33] = experiment: Growth of human MDA-MB-231 cells at 10 uM after 48 hrs by SRB assay; conditions: MDA-MB-231, 48 h
NUGC-3 [34] = experiment: Growth of human NUGC3 cells at 0.3 uM after 48 hrs by SRB assay; conditions: NUGC-3, 48 h
MDA-MB-231 [35] = experiment: Growth inhibition of human MDA-MB-231 cells after 48 hrs by SRB assay; format: functional; conditions: MDA-MB-231, 48 h
NCI-H23 [36] = experiment: Growth inhibition of human NCI-H23 cells after 48 hrs by SRB assay; format: functional; conditions: NCI-H23, 48 h
NUGC-3 [37] = experiment: Growth inhibition of human NUGC3 cells at 10 uM after 48 hrs by SRB assay; values are per cent of control; conditions: NUGC-3, 48 h

Sequence of Rho-related GTP-binding protein RhoB (Homo sapiens) (P62745 whole entry): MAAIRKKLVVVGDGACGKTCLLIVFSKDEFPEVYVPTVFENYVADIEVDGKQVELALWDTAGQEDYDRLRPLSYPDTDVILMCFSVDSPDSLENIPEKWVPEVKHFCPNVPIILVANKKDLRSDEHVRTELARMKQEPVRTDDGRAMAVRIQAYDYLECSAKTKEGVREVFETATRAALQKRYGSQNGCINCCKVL

Activity [1] | GI50 (ACHN [2]) | GI50 (PC-3 [7]) | GI50 (HCT-15 [11]) | SMILES | growth, % of control at 3 µM (HCT-15 [3]) | growth, % of control at 0.1 µM (NUGC-3 [4]) | growth, % of control at 0.3 µM (ACHN [5]) | growth, % of control at 0.1 µM (ACHN [6]) | growth, % of control at 0.1 µM (MDA-MB-231 [8]) | growth, % of control at 3 µM (NCI-H23 [9]) | growth, % of control at 1 µM (HCT-15 [10]) | growth, % of control at 0.3 µM (HCT-15 [12]) | growth, % of control at 1 µM (PC-3 [13]) | growth, % of control at 0.1 µM (NCI-H23 [14]) | GI50 (NUGC-3 [15]) | growth, % of control at 0.3 µM (MDA-MB-231 [16]) | growth, % of control at 1 µM (NUGC-3 [17]) | growth, % of control at 3 µM (PC-3 [18]) | growth, % of control at 0.1 µM (HCT-15 [19]) | growth, % of control at 1 µM (NCI-H23 [20]) | also measured
Active | 1000 nM | 440 nM | 780 nM | CCCCCCCCCCCCCCCCS(=O)(=O)N(C)CCC[N+](C)(C)C | 26.7% | 91.8% | 97.6% | 96.7% | 97.6% | 26.5% | 57% | 104% | 31.5% | 94.9% | 210 nM | 92.3% | 25% | -24.5% | 100% | 72.7% | growth, % of control at 0.3 µM (NCI-H23 [21]): 97.3%; growth, % of control at 3 µM (MDA-MB-231 [22]): 39.2%; growth, % of control at 10 µM (HCT-15 [23]): 8.7%; growth, % of control at 1 µM (MDA-MB-231 [24]): 66.5%; growth, % of control at 1 µM (ACHN [25]): 72.2%; growth, % of control at 0.1 µM (PC-3 [26]): 101%; growth, % of control at 3 µM (ACHN [27]): 36.3%; growth, % of control at 10 µM (NCI-H23 [28]): -10.4%; growth, % of control at 10 µM (ACHN [29]): -31.4%; growth, % of control at 3 µM (NUGC-3 [30]): -22.4%; growth, % of control at 10 µM (PC-3 [31]): -54.1%; growth, % of control at 0.3 µM (PC-3 [32]): 91%; growth, % of control at 10 µM (MDA-MB-231 [33]): 8.8%; growth, % of control at 0.3 µM (NUGC-3 [34]): 59.1%; GI50 (MDA-MB-231 [35]): 1040 nM; GI50 (NCI-H23 [36]): 910 nM; growth, % of control at 10 µM (NUGC-3 [37]): -40.9%
Active | 1450 nM | 760 nM | 1810 nM | C=CC[N+](CC)(CC)CCN(C)S(=O)(=O)CCCCCCCCCCCCCCCC | 66.6% | 89.1% | 88.2% | 85.9% | 94.8% | 16.9% | 84% | 90.7% | 73.3% | 77.9% | 390 nM | 97% | 34.9% | 10% | 87.9% | 51.3% | growth, % of control at 0.3 µM (NCI-H23 [21]): 78.4%; growth, % of control at 3 µM (MDA-MB-231 [22]): 42.9%; growth, % of control at 10 µM (HCT-15 [23]): -7%; growth, % of control at 1 µM (MDA-MB-231 [24]): 80.6%; growth, % of control at 1 µM (ACHN [25]): 82.2%; growth, % of control at 0.1 µM (PC-3 [26]): 88.2%; growth, % of control at 3 µM (ACHN [27]): 50.4%; growth, % of control at 10 µM (NCI-H23 [28]): -7.6%; growth, % of control at 10 µM (ACHN [29]): -11.8%; growth, % of control at 3 µM (NUGC-3 [30]): 4.9%; growth, % of control at 10 µM (PC-3 [31]): -13.2%; growth, % of control at 0.3 µM (PC-3 [32]): 91%; growth, % of control at 10 µM (MDA-MB-231 [33]): 9.2%; growth, % of control at 0.3 µM (NUGC-3 [34]): 86.6%; GI50 (MDA-MB-231 [35]): 1340 nM; GI50 (NCI-H23 [36]): 450 nM; growth, % of control at 10 µM (NUGC-3 [37]): -20.2%
